From publication PMC9898036, “VIP152 is a selective CDK9 inhibitor with pre-clinical in vitro and in vivo efficacy in chronic lymphocytic leukemia” (Leukemia, 2022)
Read-outs that look alike come from different tables or passages of the source.

Assays:
Experiment in all cases: DiscoverX KINOMEscan kinase profiling (468 assays)
Assay type in all cases: binding
human kinome [1] = biological target: human kinome (Homo sapiens, UniProt Q9NQU5); conditions: read-out: Percent Control
Outline: (§1)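 DNA-tagged kinases competed for immobilized biotinylated ligands on streptavidin magnetic beads, with bound kinase quantified by qPCR. VIP152 in DMSO was tested against a DMSO control.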

human kinome [2] = biological target: human kinome (Homo sapiens, UniProt Q8NEB9); conditions: kinase VPS34 (Entrez PIK3C3); compound concentration 1000 nM; read-out: Percent Control
Outline: as §1

human kinome [3] = biological target: human kinome (Homo sapiens, UniProt O75460); conditions: ERN1; 100 nM; read-out: Percent Control
Outline: as §1

human kinome [4] = biological target: human kinome (Homo sapiens, UniProt P53667); conditions: LIMK1; 100 nM; read-out: Percent Control
Outline: as §1

human kinome [5] = biological target: human kinome (Homo sapiens, UniProt P00533, L858R/T790M); conditions: EGFR(L858R,T790M); 100 nM; read-out: Percent Control
Outline: as §1

human kinome [6] = biological target: human kinome (Homo sapiens, UniProt Q00537); conditions: read-out: Percent Control
Sequence of human kinome (Homo sapiens, UniProt Q00537) (Q00537 whole entry): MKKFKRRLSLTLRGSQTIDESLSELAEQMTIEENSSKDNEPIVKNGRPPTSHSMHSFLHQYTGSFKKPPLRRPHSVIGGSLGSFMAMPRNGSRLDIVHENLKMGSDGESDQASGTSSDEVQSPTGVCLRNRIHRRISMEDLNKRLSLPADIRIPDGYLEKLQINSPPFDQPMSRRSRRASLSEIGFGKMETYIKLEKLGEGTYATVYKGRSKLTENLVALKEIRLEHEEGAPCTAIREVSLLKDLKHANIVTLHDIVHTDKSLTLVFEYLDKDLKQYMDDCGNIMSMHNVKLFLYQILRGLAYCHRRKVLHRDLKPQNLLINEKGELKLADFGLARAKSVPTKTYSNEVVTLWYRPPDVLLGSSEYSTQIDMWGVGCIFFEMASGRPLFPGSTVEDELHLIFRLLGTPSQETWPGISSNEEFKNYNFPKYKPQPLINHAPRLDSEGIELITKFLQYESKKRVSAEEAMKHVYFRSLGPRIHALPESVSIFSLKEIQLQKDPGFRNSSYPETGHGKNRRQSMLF
Outline: as §1

human kinome [7] = biological target: human kinome (Homo sapiens, UniProt P51817); conditions: read-out: Percent Control
Sequence of human kinome (Homo sapiens, UniProt P51817) (P51817 whole entry): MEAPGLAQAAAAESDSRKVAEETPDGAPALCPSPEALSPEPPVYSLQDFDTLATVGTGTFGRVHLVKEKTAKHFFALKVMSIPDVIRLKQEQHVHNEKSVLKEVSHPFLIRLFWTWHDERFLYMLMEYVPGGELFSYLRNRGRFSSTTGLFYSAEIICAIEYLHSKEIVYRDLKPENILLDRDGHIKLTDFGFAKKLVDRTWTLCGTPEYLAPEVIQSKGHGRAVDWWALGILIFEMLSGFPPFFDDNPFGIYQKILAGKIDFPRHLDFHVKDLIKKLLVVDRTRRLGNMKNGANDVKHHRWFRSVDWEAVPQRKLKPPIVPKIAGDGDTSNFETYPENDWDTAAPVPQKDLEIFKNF
Outline: as §1

human kinome [8] = biological target: human kinome (Homo sapiens, UniProt P17948); conditions: FLT1; 100 nM; read-out: Percent Control
Outline: as §1

human kinome [9] = biological target: human kinome (Homo sapiens, UniProt O15197); conditions: EPHB6; 100 nM; read-out: Percent Control
Outline: as §1

human kinome [10] = biological target: human kinome (Homo sapiens, UniProt P42336, H1047Y); conditions: read-out: Percent Control
Sequence of human kinome (Homo sapiens, UniProt P42336, H1047Y) (P42336 whole entry H1047Y): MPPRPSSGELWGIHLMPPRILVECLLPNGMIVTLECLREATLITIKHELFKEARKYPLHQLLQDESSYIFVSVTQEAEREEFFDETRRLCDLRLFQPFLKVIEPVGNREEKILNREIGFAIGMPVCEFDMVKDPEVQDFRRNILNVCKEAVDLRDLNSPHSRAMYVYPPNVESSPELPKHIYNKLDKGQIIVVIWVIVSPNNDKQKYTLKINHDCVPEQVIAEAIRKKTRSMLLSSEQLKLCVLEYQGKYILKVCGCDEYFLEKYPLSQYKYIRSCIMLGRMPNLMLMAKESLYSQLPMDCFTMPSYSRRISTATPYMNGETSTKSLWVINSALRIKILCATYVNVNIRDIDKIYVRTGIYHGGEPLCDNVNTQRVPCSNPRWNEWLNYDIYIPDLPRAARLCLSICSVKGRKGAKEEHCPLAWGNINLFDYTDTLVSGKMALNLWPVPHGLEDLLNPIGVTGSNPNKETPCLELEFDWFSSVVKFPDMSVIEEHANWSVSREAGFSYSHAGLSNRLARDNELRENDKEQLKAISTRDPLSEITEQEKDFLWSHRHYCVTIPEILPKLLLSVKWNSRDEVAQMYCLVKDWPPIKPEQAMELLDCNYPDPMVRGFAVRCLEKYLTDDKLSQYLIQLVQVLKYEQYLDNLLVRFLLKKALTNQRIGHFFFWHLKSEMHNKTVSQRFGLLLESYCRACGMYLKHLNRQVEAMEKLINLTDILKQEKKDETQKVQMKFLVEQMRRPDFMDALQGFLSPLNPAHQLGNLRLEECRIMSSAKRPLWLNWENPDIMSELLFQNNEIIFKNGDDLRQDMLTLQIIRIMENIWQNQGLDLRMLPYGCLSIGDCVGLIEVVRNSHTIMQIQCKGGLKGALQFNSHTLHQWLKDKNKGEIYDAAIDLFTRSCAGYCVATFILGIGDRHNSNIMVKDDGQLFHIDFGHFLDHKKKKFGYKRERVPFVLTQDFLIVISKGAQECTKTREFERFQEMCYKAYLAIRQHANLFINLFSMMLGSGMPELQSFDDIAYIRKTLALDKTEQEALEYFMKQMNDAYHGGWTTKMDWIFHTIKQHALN
Outline: as §1

human kinome [11] = biological target: human kinome (Homo sapiens, UniProt P10721, T670I/V559D); conditions: KIT(V559D,T670I); 100 nM; read-out: Percent Control
Sequence of human kinome (Homo sapiens, UniProt P10721, T670I/V559D) (P10721 26-976 V559D/T670I): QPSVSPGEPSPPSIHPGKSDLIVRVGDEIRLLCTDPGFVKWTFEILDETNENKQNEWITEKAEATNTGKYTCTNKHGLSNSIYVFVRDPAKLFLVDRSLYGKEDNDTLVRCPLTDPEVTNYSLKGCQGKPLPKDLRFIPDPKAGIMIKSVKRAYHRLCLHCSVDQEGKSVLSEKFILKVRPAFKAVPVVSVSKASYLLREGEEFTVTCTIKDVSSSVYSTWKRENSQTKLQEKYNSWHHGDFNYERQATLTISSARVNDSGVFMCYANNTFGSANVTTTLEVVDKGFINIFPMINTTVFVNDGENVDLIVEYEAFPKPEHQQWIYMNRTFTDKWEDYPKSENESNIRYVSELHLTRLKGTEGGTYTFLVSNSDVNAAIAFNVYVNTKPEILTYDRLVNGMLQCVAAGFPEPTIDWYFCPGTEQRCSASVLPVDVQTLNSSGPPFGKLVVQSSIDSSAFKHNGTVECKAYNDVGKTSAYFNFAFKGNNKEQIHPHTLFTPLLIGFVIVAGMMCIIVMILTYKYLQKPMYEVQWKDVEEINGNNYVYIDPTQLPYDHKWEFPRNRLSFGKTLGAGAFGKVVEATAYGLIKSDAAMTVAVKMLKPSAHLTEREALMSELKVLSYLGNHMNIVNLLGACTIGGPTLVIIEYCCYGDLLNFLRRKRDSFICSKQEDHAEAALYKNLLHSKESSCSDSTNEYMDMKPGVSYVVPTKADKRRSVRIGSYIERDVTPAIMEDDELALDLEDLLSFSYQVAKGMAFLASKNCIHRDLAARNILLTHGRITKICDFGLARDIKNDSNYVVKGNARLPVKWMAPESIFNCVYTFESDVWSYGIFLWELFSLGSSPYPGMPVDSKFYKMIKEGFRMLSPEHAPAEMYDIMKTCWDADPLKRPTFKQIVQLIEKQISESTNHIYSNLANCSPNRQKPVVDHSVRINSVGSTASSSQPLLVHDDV
Outline: as §1

human kinome [12] = biological target: human kinome (Homo sapiens, UniProt Q04771); conditions: ACVR1; 100 nM; read-out: Percent Control
Outline: as §1

human kinome [13] = biological target: human kinome (Homo sapiens, UniProt O96013); conditions: read-out: Percent Control
Sequence of human kinome (Homo sapiens, UniProt O96013) (O96013 whole entry): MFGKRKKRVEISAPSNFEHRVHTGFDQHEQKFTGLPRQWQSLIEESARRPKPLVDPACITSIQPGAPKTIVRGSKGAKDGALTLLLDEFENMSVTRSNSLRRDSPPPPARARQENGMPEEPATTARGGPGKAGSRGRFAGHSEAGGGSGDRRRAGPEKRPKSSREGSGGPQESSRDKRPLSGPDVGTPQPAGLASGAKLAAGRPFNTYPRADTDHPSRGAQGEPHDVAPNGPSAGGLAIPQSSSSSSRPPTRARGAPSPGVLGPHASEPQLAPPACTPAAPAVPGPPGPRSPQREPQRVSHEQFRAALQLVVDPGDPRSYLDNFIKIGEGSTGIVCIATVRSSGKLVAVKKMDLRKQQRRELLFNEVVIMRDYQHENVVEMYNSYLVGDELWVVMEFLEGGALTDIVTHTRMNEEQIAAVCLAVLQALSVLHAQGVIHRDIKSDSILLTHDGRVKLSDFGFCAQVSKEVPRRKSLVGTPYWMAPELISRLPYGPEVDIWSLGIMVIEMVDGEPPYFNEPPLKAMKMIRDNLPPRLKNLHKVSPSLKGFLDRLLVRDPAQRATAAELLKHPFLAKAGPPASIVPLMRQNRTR
Outline: as §1

human kinome [14] = biological target: human kinome (Homo sapiens, UniProt Q6ZN16); conditions: MAP3K15; 100 nM; read-out: Percent Control
Outline: as §1

human kinome [15] = biological target: human kinome (Homo sapiens, UniProt P51813); conditions: BMX; 100 nM; read-out: Percent Control
Outline: as §1

human kinome [16] = biological target: human kinome (Homo sapiens, UniProt O15264); conditions: read-out: Percent Control
Sequence of human kinome (Homo sapiens, UniProt O15264) (O15264 whole entry): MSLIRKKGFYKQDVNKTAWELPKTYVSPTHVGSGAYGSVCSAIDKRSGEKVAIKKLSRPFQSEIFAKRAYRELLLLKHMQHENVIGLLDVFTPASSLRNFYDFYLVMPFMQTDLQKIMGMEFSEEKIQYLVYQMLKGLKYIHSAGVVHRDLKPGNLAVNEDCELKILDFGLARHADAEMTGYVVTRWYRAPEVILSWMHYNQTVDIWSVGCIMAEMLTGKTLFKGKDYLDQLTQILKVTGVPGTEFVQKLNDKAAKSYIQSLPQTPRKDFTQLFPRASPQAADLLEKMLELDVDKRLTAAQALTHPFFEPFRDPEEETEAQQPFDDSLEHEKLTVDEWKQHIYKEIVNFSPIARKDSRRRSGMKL
Outline: as §1

human kinome [17] = biological target: human kinome (Homo sapiens, UniProt P57058); conditions: HUNK; 100 nM; read-out: Percent Control
Outline: as §1

human kinome [18] = biological target: human kinome (Homo sapiens, UniProt P10721, D816H); conditions: KIT(D816H); 100 nM; read-out: Percent Control
Sequence of human kinome (Homo sapiens, UniProt P10721, D816H) (P10721 26-976 D816H): as the sequence (P10721 26-976 V559D/T670I) above, with D534V, I645T, D791H counted along it
Outline: as §1

human kinome [19] = biological target: human kinome (Homo sapiens, UniProt P11309); conditions: read-out: Percent Control
Sequence of human kinome (Homo sapiens, UniProt P11309) (P11309 whole entry): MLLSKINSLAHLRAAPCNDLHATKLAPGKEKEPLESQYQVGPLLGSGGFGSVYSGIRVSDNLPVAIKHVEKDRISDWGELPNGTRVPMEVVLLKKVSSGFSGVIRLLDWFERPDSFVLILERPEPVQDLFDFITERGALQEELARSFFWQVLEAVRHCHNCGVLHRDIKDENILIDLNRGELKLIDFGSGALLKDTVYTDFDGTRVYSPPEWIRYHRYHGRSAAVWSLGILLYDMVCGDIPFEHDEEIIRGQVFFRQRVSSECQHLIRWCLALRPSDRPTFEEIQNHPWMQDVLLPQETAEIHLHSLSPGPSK
Outline: as §1

human kinome [20] = biological target: human kinome (Homo sapiens, UniProt Q59H18); conditions: kinase TNNI3K (Entrez TNNI3K); compound concentration 1000 nM; read-out: Percent Control
Outline: as §1

human kinome [21] = biological target: human kinome (Homo sapiens, UniProt Q7KZI7); conditions: MARK2; 100 nM; read-out: Percent Control
Outline: as §1

human kinome [22] = biological target: human kinome (Homo sapiens, UniProt P10721); conditions: 100 nM, read-out: Percent Control
Sequence of human kinome (Homo sapiens, UniProt P10721) (P10721 26-976): as the sequence (P10721 26-976 V559D/T670I) above, with D534V, I645T counted along it
Outline: as §1

human kinome [23] = biological target: human kinome (Homo sapiens, UniProt Q13546); conditions: kinase RIPK1 (Entrez RIPK1); compound concentration 1000 nM; read-out: Percent Control
Outline: as §1

human kinome [24] = biological target: human kinome (Homo sapiens, UniProt Q99558); conditions: read-out: Percent Control
Outline: as §1

human kinome [25] = biological target: human kinome (Homo sapiens, UniProt O96017); conditions: CHEK2; 100 nM; read-out: Percent Control
Outline: as §1

human kinome [26] = biological target: human kinome (Homo sapiens, UniProt Q92772); conditions: CDKL2; 100 nM; read-out: Percent Control
Outline: as §1

human kinome [27] = biological target: human kinome (Homo sapiens, UniProt P22607); conditions: FGFR3; 100 nM; read-out: Percent Control
Outline: as §1

human kinome [28] = biological target: human kinome (Homo sapiens, UniProt Q8TDR2); conditions: kinase STK35 (Entrez STK35); compound concentration 1000 nM; read-out: Percent Control
Outline: as §1

human kinome [29] = biological target: human kinome (Homo sapiens, UniProt O14757); conditions: CHEK1; 100 nM; read-out: Percent Control
Outline: as §1

Sequence of human kinome (Homo sapiens, UniProt Q9NQU5) (Q9NQU5 whole entry): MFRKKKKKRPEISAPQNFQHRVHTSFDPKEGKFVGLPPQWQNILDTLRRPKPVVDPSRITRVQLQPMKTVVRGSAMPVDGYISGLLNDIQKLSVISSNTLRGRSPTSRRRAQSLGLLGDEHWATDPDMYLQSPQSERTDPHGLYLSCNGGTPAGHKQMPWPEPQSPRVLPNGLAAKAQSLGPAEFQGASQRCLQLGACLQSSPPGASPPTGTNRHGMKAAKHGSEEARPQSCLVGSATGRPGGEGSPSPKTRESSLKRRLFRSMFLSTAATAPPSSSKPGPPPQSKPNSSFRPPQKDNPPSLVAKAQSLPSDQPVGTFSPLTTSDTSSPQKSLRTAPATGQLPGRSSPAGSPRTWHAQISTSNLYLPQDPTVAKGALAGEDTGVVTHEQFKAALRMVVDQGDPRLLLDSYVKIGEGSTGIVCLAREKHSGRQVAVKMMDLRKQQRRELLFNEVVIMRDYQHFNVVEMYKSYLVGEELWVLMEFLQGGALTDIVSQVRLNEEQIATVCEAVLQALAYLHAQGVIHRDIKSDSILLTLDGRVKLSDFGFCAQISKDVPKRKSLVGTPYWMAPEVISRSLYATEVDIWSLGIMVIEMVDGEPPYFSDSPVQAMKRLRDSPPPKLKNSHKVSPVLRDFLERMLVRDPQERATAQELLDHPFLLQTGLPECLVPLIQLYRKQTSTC

COc1cc(F)ccc1-c1cc(Nc2cc(CS(C)(=N)=O)ccn2)ncc1F (centres unmarked) [VIP152]
remaining binding at 0.1 µM (human kinome [1]; PAK6, 100 nM): 100%
remaining binding at 1 µM (human kinome [1]; kinase PAK6 (Entrez PAK6), compound concentration 1000 nM): 91%
remaining binding at 1 µM (human kinome [2]): 100%
remaining binding at 0.1 µM (human kinome [3]): 88%
remaining binding at 0.1 µM (human kinome [4]): 100%
remaining binding at 0.1 µM (human kinome [5]): 93%
remaining binding at 0.1 µM (human kinome [6]; PCTK2 (Entrez CDK17), 100 nM): 100%
remaining binding at 1 µM (human kinome [6]; kinase PCTK2 (Entrez CDK17), compound concentration 1000 nM): 54%
remaining binding at 0.1 µM (human kinome [7]; PRKX, 100 nM): 100%
remaining binding at 1 µM (human kinome [7]; kinase PRKX (Entrez PRKX), compound concentration 1000 nM): 99%
remaining binding at 0.1 µM (human kinome [8]): 100%
remaining binding at 0.1 µM (human kinome [9]): 87%
remaining binding at 0.1 µM (human kinome [10]; PIK3CA(H1047Y), 100 nM): 74%
remaining binding at 1 µM (human kinome [10]; kinase PIK3CA(H1047Y) (Entrez PIK3CA), compound concentration 1000 nM): 85%
remaining binding at 0.1 µM (human kinome [11]): 100%
remaining binding at 0.1 µM (human kinome [12]): 100%
remaining binding at 0.1 µM (human kinome [13]; PAK4, 100 nM): 100%
remaining binding at 1 µM (human kinome [13]; kinase PAK4 (Entrez PAK4), compound concentration 1000 nM): 89%
remaining binding at 0.1 µM (human kinome [14]): 100%
remaining binding at 0.1 µM (human kinome [15]): 100%
remaining binding at 1 µM (human kinome [16]; kinase p38-delta (Entrez MAPK13), compound concentration 1000 nM): 98%
remaining binding at 0.1 µM (human kinome [16]; p38-delta (Entrez MAPK13), 100 nM): 100%
remaining binding at 0.1 µM (human kinome [17]): 88%
remaining binding at 0.1 µM (human kinome [18]): 100%
remaining binding at 0.1 µM (human kinome [19]; PIM1, 100 nM): 100%
remaining binding at 1 µM (human kinome [19]; kinase PIM1 (Entrez PIM1), compound concentration 1000 nM): 100%
remaining binding at 1 µM (human kinome [20]): 27%
remaining binding at 0.1 µM (human kinome [21]): 100%
remaining binding at 0.1 µM (human kinome [22]; KIT-autoinhibited): 98%
remaining binding at 0.1 µM (human kinome [22]; KIT): 100%
remaining binding at 1 µM (human kinome [23]): 79%
remaining binding at 0.1 µM (human kinome [24]; NIK (Entrez MAP3K14), 100 nM): 87%
remaining binding at 1 µM (human kinome [24]; kinase NIK (Entrez MAP3K14), compound concentration 1000 nM): 88%
remaining binding at 0.1 µM (human kinome [25]): 100%
remaining binding at 0.1 µM (human kinome [26]): 100%
remaining binding at 0.1 µM (human kinome [27]): 100%
remaining binding at 1 µM (human kinome [28]): 95%
remaining binding at 0.1 µM (human kinome [29]): 100%
